How the values were obtained:
arrowhead = assay: Test D paddy water application plant response rating 0 to 100; format: in vivo, Sagittaria spp.; conditions: 0 to 100 scale, approx. 21 days
Description: (§1) Plastic pots were partially filled with silt loam soil. The soil was then saturated with water. […] After planting, water levels were raised to 3 cm above the soil surface and maintained at this level throughout the test. Chemical treatments were formulated in a non-phytotoxic solvent and applied directly to the paddy water. Treated plants and controls were maintained in a greenhouse for approximately 21 days, after which all species were compared to controls and visually evaluated. […] A dash (-) response means no test result.

waterchestnut = assay: as above; format: in vivo, Eleocharis spp.; conditions: 0 to 100 scale, approx. 21 days
Description: as §1

barnyardgrass [1] = assay: as above; format: in vivo, Echinochloa crus-galli; conditions: 0 to 100 scale, approx. 21 days
Description: as §1

duck salad = assay: as above; format: in vivo, Heteranthera limosa; conditions: 0 to 100 scale, approx. 21 days
Description: as §1

Japonica rice [2] = assay: Test E paddy water application plant response rating 0 to 100; format: in vivo, oryza sativa; conditions: Flood, 0 to 100 scale, approx. 21 days
Description: (§2) Plastic pots were partially filled with silt loam soil. […] At testing, the water level for all plantings was raised to 2 cm above the soil surface. Chemical treatments were formulated in a non-phytotoxic solvent and applied directly to the paddy water. Treated plants and controls were maintained in a greenhouse for approximately 21 days, after which all species were compared to controls and visually evaluated. […] A dash (-) response means no test result.

umbrella sedge = assay: Test D paddy water application plant response rating 0 to 100; format: in vivo, Cyperus difformis; conditions: 0 to 100 scale, approx. 21 days
Description: as §1

barnyardgrass [3] = assay: Test E paddy water application plant response rating 0 to 100; format: in vivo, Echinochloa crus-galli; conditions: Flood, 0 to 100 scale, approx. 21 days
Description: as §2

Japonica rice [4] = assay: Test D paddy water application plant response rating 0 to 100; format: in vivo, Oryza sativa; conditions: 0 to 100 scale, approx. 21 days
Description: as §1

C#CCN1C(=O)COc2cc(F)c(-c3nn4c(c3Cl)CCCC4)cc21 [Compound 34]
Arrowhead plant response rating (arrowhead; Rate 4 g/ha): 85 | Arrowhead plant response rating (arrowhead; Rate 8 g/ha): 90 | Arrowhead plant response rating (arrowhead; Rate 16 g/ha): 90 | Arrowhead plant response rating (arrowhead; Rate 32 g/ha): 100 | Arrowhead plant response rating (arrowhead; Rate 64 g/ha): 100 | Waterchestnut plant response rating (waterchestnut; Rate 4 g/ha): 20 | Waterchestnut plant response rating (waterchestnut; Rate 8 g/ha): 20 | Waterchestnut plant response rating (waterchestnut; Rate 32 g/ha): 20 | Waterchestnut plant response rating (waterchestnut; Rate 64 g/ha): 20 | Barnyardgrass 2 plant response rating (barnyardgrass [1]; Rate 4 g/ha): 0 | Barnyardgrass 2 plant response rating (barnyardgrass [1]; Rate 8 g/ha): 10 | Barnyardgrass 2 plant response rating (barnyardgrass [1]; Rate 16 g/ha): 20 | Barnyardgrass 2 plant response rating (barnyardgrass [1]; Rate 32 g/ha): 30 | Barnyardgrass 2 plant response rating (barnyardgrass [1]; Rate 64 g/ha): 50 | Duck salad plant response rating (duck salad; Rate 4 g/ha): 0 | Duck salad plant response rating (duck salad; Rate 8 g/ha): 0 | Duck salad plant response rating (duck salad; Rate 16 g/ha): 0 | Duck salad plant response rating (duck salad; Rate 32 g/ha): 0 | Duck salad plant response rating (duck salad; Rate 64 g/ha): 60 | Japonica 1 plant response rating (Japonica rice [2]; Rate 16 g/ha): 75 | Japonica 2 plant response rating (Japonica rice [2]; Rate 16 g/ha): 25 | Japonica 1 plant response rating (Japonica rice [2]; Rate 32 g/ha): 85 | Japonica 2 plant response rating (Japonica rice [2]; Rate 32 g/ha): 30 | Japonica 1 plant response rating (Japonica rice [2]; Rate 64 g/ha): 95 | Japonica 2 plant response rating (Japonica rice [2]; Rate 64 g/ha): 45 | Japonica 1 plant response rating (Japonica rice [2]; Rate 125 g/ha): 98 | Japonica 2 plant response rating (Japonica rice [2]; Rate 125 g/ha): 60 | Japonica 1 plant response rating (Japonica rice [2]; Rate 250 g/ha): 100 | Japonica 2 plant response rating (Japonica rice [2]; Rate 250 g/ha): 95 | Umbrella sedge plant response rating (umbrella sedge; Rate 4 g/ha): 0 | Umbrella sedge plant response rating (umbrella sedge; Rate 8 g/ha): 20 | Umbrella sedge plant response rating (umbrella sedge; Rate 16 g/ha): 50 | Umbrella sedge plant response rating (umbrella sedge; Rate 32 g/ha): 70 | Umbrella sedge plant response rating (umbrella sedge; Rate 64 g/ha): 80 | Barnyardgrass 2 plant response rating (barnyardgrass [3]; Rate 16 g/ha): 85 | Barnyardgrass 3 plant response rating (barnyardgrass [3]; Rate 16 g/ha): 35 | Barnyardgrass 2 plant response rating (barnyardgrass [3]; Rate 32 g/ha): 90 | Barnyardgrass 3 plant response rating (barnyardgrass [3]; Rate 32 g/ha): 45 | Barnyardgrass 2 plant response rating (barnyardgrass [3]; Rate 64 g/ha): 95 | Barnyardgrass 3 plant response rating (barnyardgrass [3]; Rate 64 g/ha): 45 | Barnyardgrass 2 plant response rating (barnyardgrass [3]; Rate 125 g/ha): 100 | Barnyardgrass 3 plant response rating (barnyardgrass [3]; Rate 125 g/ha): 50 | Barnyardgrass 2 plant response rating (barnyardgrass [3]; Rate 250 g/ha): 100 | Barnyardgrass 3 plant response rating (barnyardgrass [3]; Rate 250 g/ha): 95 | Japonica rice plant response rating (Japonica rice [4]; Rate 4 g/ha): 20 | Japonica rice plant response rating (Japonica rice [4]; Rate 8 g/ha): 30 | Japonica rice plant response rating (Japonica rice [4]; Rate 16 g/ha): 55 | Japonica rice plant response rating (Japonica rice [4]; Rate 32 g/ha): 40 | Japonica rice plant response rating (Japonica rice [4]; Rate 64 g/ha): 50

— patent publication US6358885B1, “Substituted phenylheterocyclic herbicides” (Mississippi State University, priority 1992, dated 2002)
